Assay results taken from PubChem BioAssay AID248 (DTP/NCI, 2004).
Inconclusive results and toxic doses are left out. No stated cut-off is given here; in the data, active means T/C of 150% or more; inactive means T/C below 125%.

System: L1210 leukemia ip in BDF1 mice, survival T/C
Experiment: NCI In Vivo Anticancer Drug Screen. Data for tumor model L1210 Leukemia (intraperitoneal) in B6D2F1 (BDF1) mice
Settings: endpoint: mean survival time, higher = longer survival
Procedure, shortened: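 Transplanted-tumor mice were given test agent; controls received vehicle only. Survival readings from the two groups were divided (treated over control).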

[1] = dose: 25.0 mg/kg/injection, schedule: Q04DX003 (ip), vehicle: saline
[2] = dose: 50.0 mg/kg/injection, schedule: Q04DX003 (ip), vehicle: saline
[3] = dose: 100.0 mg/kg/injection, schedule: Q01DX001 (ip), vehicle: saline
[4] = dose: 100.0 mg/kg/injection, schedule: Q04DX003 (ip), vehicle: Klucel (hydroxypropylcellulose) (HPC)
[5] = dose: 200.0 mg/kg/injection, schedule: Q04DX003 (ip), vehicle: Klucel (hydroxypropylcellulose) (HPC)
[6] = dose: 400.0 mg/kg/injection, schedule: Q04DX003 (ip), vehicle: Klucel (hydroxypropylcellulose) (HPC)
[7] = dose: 100.0 mg/kg/injection, schedule: Q01DX009 (ip), vehicle: Klucel (hydroxypropylcellulose) (HPC)
[8] = dose: 200.0 mg/kg/injection, schedule: Q01DX009 (ip), vehicle: Klucel (hydroxypropylcellulose) (HPC)
[9] = dose: 400.0 mg/kg/injection, schedule: Q01DX009 (ip), vehicle: Klucel (hydroxypropylcellulose) (HPC)
[10] = dose: 100.0 mg/kg/injection, schedule: Q01DX009 (ip), vehicle: saline with Tween-80
[11] = dose: 200.0 mg/kg/injection, schedule: Q01DX009 (ip), vehicle: saline with Tween-80
[12] = dose: 100.0 mg/kg/injection, schedule: Q04DX002 (ip), vehicle: saline with Tween-80
[13] = dose: 200.0 mg/kg/injection, schedule: Q04DX002 (ip), vehicle: saline with Tween-80
[14] = dose: 400.0 mg/kg/injection, schedule: Q04DX002 (ip), vehicle: saline with Tween-80
[15] = dose: 100.0 mg/kg/injection, schedule: Q04DX003 (ip), vehicle: saline

Measured: T/C

CN1Cc2cc3cc(c2O)C[N+](C)(C)Cc2c(Cl)c(c(Cl)c(c2Cl)C[N+](C)(C)C3)C1
inactive: dose: 12.5 mg/kg/injection, schedule: Q01DX009 (ip), vehicle: saline 98 % of control | dose: 12.5 mg/kg/injection, schedule: Q04DX003 (ip), vehicle: saline 97 % of control | dose: 25.0 mg/kg/injection, schedule: Q01DX009 (ip), vehicle: saline 98 % of control | [1] 97 % of control | [2] 92 % of control

CCOC(=O)Nc1cc(NC(C)CCCN(CC)CC)c2nc(-c3ccccc3)c(-c3ccccc3)nc2n1 (centres undefined)
inactive: dose: 50.0 mg/kg/injection, schedule: Q01DX001 (ip), vehicle: saline 93 % of control | [3] 90 % of control

CN(N=O)C(=O)Nc1ccccc1
inactive: dose: 6.25 mg/kg/injection, schedule: Q01DX Z (ip), vehicle: carboxymethylcellulose (CMC) 104 % of control | dose: 12.5 mg/kg/injection, schedule: Q01DX Z (ip), vehicle: carboxymethylcellulose (CMC) 112 % of control | dose: 25.0 mg/kg/injection, schedule: Q01DX Z (ip), vehicle: carboxymethylcellulose (CMC) 112 % of control | dose: 50.0 mg/kg/injection, schedule: Q01DX Z (ip), vehicle: carboxymethylcellulose (CMC) 122 % of control | dose: 100.0 mg/kg/injection, schedule: Q01DX Z (ip), vehicle: carboxymethylcellulose (CMC) 91 % of control | dose: 150.0 mg/kg/injection, schedule: Q01DX001 (ip), vehicle: carboxymethylcellulose (CMC) 112 % of control | dose: 600.0 mg/kg/injection, schedule: Q01DX001 (ip), vehicle: carboxymethylcellulose (CMC) 117 % of control

CCC(Sc1ccccc1[N+](=O)[O-])[N+](=O)[O-] (centres undefined)
inactive: [4] 105 % of control | [5] 95 % of control | [6] 100 % of control

O=C1C(Br)=CC(=C2C=C(Br)C(=O)C(Br)=C2)C=C1Br
inactive: dose: 50.0 mg/kg/injection, schedule: Q01DX009 (ip), vehicle: Klucel (hydroxypropylcellulose) (HPC) 104 % of control | [7] 117 % of control | [4] 96 % of control | [8] 104 % of control | [5] 108 % of control

Cc1ccc(NC(=O)Oc2ccc(-c3ccccc3)cc2)cc1
inactive: [7] 107 % of control | [8] 100 % of control | [9] 92 % of control

CCOC(=O)CNC(=O)Nc1ccc(C(=O)OCC)cc1
inactive: [10] 98 % of control | [11] 92 % of control

COc1ccc(/C=C/C(=O)O)cc1
inactive: [10] 100 % of control | [12] 88 % of control | [11] 107 % of control | [13] 98 % of control | dose: 400.0 mg/kg/injection, schedule: Q01DX009 (ip), vehicle: saline with Tween-80 97 % of control | [14] 88 % of control

CC(=O)C1C(N2CC2)CC2C3CCC4=CC(=O)CCC4(C)C3CCC21C (centres undefined)
inactive: dose: 50.0 mg/kg/injection, schedule: Q01DX001 (sc), vehicle: steriod suspending solution 101 % of control | dose: 100.0 mg/kg/injection, schedule: Q01DX001 (sc), vehicle: steriod suspending solution 104 % of control | dose: 200.0 mg/kg/injection, schedule: Q01DX001 (sc), vehicle: steriod suspending solution 101 % of control

O=C(NCCCl)NC(CO)C(=O)O (centres undefined)
inactive: [15] 98 % of control | dose: 200.0 mg/kg/injection, schedule: Q04DX003 (ip), vehicle: saline 93 % of control | dose: 400.0 mg/kg/injection, schedule: Q04DX003 (ip), vehicle: saline 95 % of control

O=C(O)CNCc1cccnc1
inactive: dose: 100.0 mg/kg/injection, schedule: Q01DX005 (ip), vehicle: water 94 % of control | dose: 100.0 mg/kg/injection, schedule: Q04DX003 (ip), vehicle: water 97 % of control | dose: 200.0 mg/kg/injection, schedule: Q01DX005 (ip), vehicle: water 100 % of control | dose: 200.0 mg/kg/injection, schedule: Q04DX003 (ip), vehicle: water 97 % of control | dose: 400.0 mg/kg/injection, schedule: Q01DX005 (ip), vehicle: water 96 % of control | dose: 400.0 mg/kg/injection, schedule: Q04DX003 (ip), vehicle: water 104 % of control

CCCCCOS(=O)(=O)c1ccc(Cl)c([N+](=O)[O-])c1
inactive: dose: 12.5 mg/kg/injection, schedule: Q01DX009 (ip), vehicle: saline with Tween-80 93 % of control | dose: 25.0 mg/kg/injection, schedule: Q01DX009 (ip), vehicle: saline with Tween-80 87 % of control | dose: 25.0 mg/kg/injection, schedule: Q04DX003 (ip), vehicle: saline with Tween-80 95 % of control | dose: 50.0 mg/kg/injection, schedule: Q01DX009 (ip), vehicle: saline with Tween-80 98 % of control | dose: 50.0 mg/kg/injection, schedule: Q04DX003 (ip), vehicle: saline with Tween-80 90 % of control

O=[N+]([O-])c1ccccc1SSSc1ccccc1[N+](=O)[O-]
inactive: [3] 89 % of control | dose: 200.0 mg/kg/injection, schedule: Q01DX001 (ip), vehicle: saline 93 % of control | dose: 400.0 mg/kg/injection, schedule: Q01DX001 (ip), vehicle: saline 101 % of control

C/C=C/c1ccc2ccc[n+](C)c2c1O
inactive: [1] 94 % of control | dose: 50.0 mg/kg/injection, schedule: Q01DX001 (ip), vehicle: carboxymethylcellulose (CMC) 103 % of control | [2] 98 % of control | dose: 100.0 mg/kg/injection, schedule: Q01DX001 (ip), vehicle: carboxymethylcellulose (CMC) 95 % of control | [15] 94 % of control

CC(C)C1=CC23CCC4C(C)(C(N)=O)CCCC4(C)C2CC1C1C(=O)NC(=O)C13 (centres undefined)
inactive: [4] 97 % of control | [5] 95 % of control | [6] 92 % of control

O=C(NC(=O)C(Cl)Cl)Nc1ccc2c(c1)-c1ccccc1C2
inactive: dose: 100.0 mg/kg/injection, schedule: Q01DX001 (ip), vehicle: Klucel (hydroxypropylcellulose) (HPC) 87 % of control | [7] 96 % of control | [4] 92 % of control | dose: 200.0 mg/kg/injection, schedule: Q01DX001 (ip), vehicle: Klucel (hydroxypropylcellulose) (HPC) 90 % of control | [8] 94 % of control | [5] 92 % of control | dose: 400.0 mg/kg/injection, schedule: Q01DX001 (ip), vehicle: Klucel (hydroxypropylcellulose) (HPC) 92 % of control | [9] 100 % of control | [6] 88 % of control

Nc1ncnc(N)c1NC(=O)c1ccc(Cl)c(Cl)c1
inactive: dose: 75.0 mg/kg/injection, schedule: Q01DX001 (ip), vehicle: saline with Tween-80 102 % of control | dose: 150.0 mg/kg/injection, schedule: Q01DX001 (ip), vehicle: saline with Tween-80 98 % of control | dose: 300.0 mg/kg/injection, schedule: Q01DX001 (ip), vehicle: saline with Tween-80 96 % of control

NC(=S)c1ncc(N)s1
inactive: [12] 92 % of control | [13] 100 % of control | [14] 120 % of control

CCOc1ccc(Br)cc1/C=N\NC(=O)c1ccccc1N(C)C
inactive: dose: 100.0 mg/kg/injection, schedule: Q04DX002 (ip), vehicle: gum acacia 90 % of control | dose: 200.0 mg/kg/injection, schedule: Q04DX002 (ip), vehicle: gum acacia 100 % of control | dose: 400.0 mg/kg/injection, schedule: Q04DX002 (ip), vehicle: gum acacia 90 % of control
